Measurements published in patent US20250262201A1, “COMPOUNDS AND METHODS USEFUL FOR STABILIZING PHENYLALANINE HYDROXYLASE MUTATIONS” (Agios Pharmaceuticals, Inc., priority 2022, published 2025).

Biological target: T1, human PAH with the R408W mutation (Homo sapiens, UniProt P00439, R408W)
T1 construct: expressed in transfected cells
T1 sequence (P00439 1-452 R408W): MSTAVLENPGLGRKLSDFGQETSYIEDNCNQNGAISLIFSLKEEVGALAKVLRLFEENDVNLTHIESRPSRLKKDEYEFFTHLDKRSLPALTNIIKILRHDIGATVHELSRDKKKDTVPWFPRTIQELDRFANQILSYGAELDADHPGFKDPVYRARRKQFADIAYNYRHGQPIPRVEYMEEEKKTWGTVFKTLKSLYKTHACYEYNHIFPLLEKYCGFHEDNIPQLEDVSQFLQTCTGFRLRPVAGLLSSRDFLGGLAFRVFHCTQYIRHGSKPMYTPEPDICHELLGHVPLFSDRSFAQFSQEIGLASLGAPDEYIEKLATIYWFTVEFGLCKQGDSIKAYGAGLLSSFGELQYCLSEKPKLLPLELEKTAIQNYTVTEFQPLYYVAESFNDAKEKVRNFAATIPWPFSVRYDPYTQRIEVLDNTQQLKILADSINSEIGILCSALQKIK
Assay: Cell Based Phenylalanine Flux Assay
Settings: A375 cells expressing human R408W PAH; 24 hrs compound incubation; 13C-Tyrosine by LC-MS; average where tested multiple times; read-out: AC50
Experimental: Compounds were resuspended in DMSO, and 2-fold serial dilutions were performed to generate a 10-point dose curve. Compounds were added to plated cells in a total volume of 100 pal, and a final DMSO concentration of 0.5%. Each compound was tested in duplicate. Following compound addition, cells were placed in a 5% CO2, 37° C. tissue culture incubator for 24 hrs. After the incubation period, 20 μM sepiapterin and 800 μM 13C9,15N-Phenylalanine were added. After 4 hours, cell media was removed. An aliquot of 10 μl of cell media was combined with 200 μl of extraction buffer (80% acetonitrile/20% H2O) for each well. Determination of ^13C-Tyrosine concentration was assessed by liquid chromatography mass spectrometry.

AC50 | Structure (SMILES)
> 5 µM | Cc1nc(-c2ccccn2)oc1C(=O)N1CCc2[nH]cnc2C1c1ccc2ccccc2n1 (stereo in doubt) [Example 32, (S)-(4-methyl-2-(pyridin-2-yl)oxazol-5-yl)(4-(quinolin-2-yl)-6,7-dihydro-1H-imidazo[4,5-c]pyridin-5(4H)-yl)methanone]
1 to 5 µM | O=C(c1nnc(-c2ccc(F)cn2)o1)N1CCc2[nH]cnc2C1c1ccc2ccccc2n1 (stereo in doubt) [Example 33, (R)-(5-(5-fluoropyridin-2-yl)-1,3,4-oxadiazol-2-yl)(4-(quinolin-2-yl)-6,7-dihydro-1H-imidazo[4,5-c]pyridin-5(4H)-yl)methanone]
> 5 µM | O=C(c1nnc(-c2ccc(F)cn2)o1)N1CCc2[nH]cnc2C1c1ccc2ccccc2n1 (stereo in doubt) [Example 34, (S)-(5-(5-fluoropyridin-2-yl)-1,3,4-oxadiazol-2-yl)(4-(quinolin-2-yl)-6,7-dihydro-1H-imidazo[4,5-c]pyridin-5(4H)-yl)methanone]
< 0.5 µM | Cc1nc(C2CC2)oc1C(=O)N1CCc2[nH]cnc2C1c1ccc2ccccc2n1 (stereo in doubt) [Example 35, (R)-(2-cyclopropyl-4-methyloxazol-5-yl)(4-(quinolin-2-yl)-6,7-dihydro-1H-imidazo[4,5-c]pyridin-5(4H)-yl)methanone]
> 5 µM | Cc1nc(C2CC2)oc1C(=O)N1CCc2[nH]cnc2C1c1ccc2ccccc2n1 (stereo in doubt) [Example 36, (S)-(2-cyclopropyl-4-methyloxazol-5-yl)(4-(quinolin-2-yl)-6,7-dihydro-1H-imidazo[4,5-c]pyridin-5(4H)-yl)methanone]
< 0.5 µM | O=C(c1ocnc1C(F)(F)F)N1CCc2[nH]cnc2C1c1ccc2ccccc2n1 (stereo in doubt) [Example 37, (R)-(4-(quinolin-2-yl)-6,7-dihydro-1H-imidazo[4,5-c]pyridin-5(4H)-yl)(4-(trifluoromethyl)oxazol-5-yl)methanone]
1 to 5 µM | O=C(c1ocnc1C(F)(F)F)N1CCc2[nH]cnc2C1c1ccc2ccccc2n1 (stereo in doubt) [Example 38, (S)-(4-(quinolin-2-yl)-6,7-dihydro-1H-imidazo[4,5-c]pyridin-5(4H)-yl)(4-(trifluoromethyl)oxazol-5-yl)methanone]
0.5 to 1 µM | CC(F)(F)c1ncc(C(=O)N2CCc3[nH]cnc3C2c2ccc3ccccc3n2)s1 (stereo in doubt) [Example 39, (R)-(2-(1,1-difluoroethyl)thiazol-5-yl)(4-(quinolin-2-yl)-6,7-dihydro-1H-imidazo[4,5-c]pyridin-5(4H)-yl)methanone]
1 to 5 µM | CC(F)(F)c1ncc(C(=O)N2CCc3[nH]cnc3C2c2ccc3ccccc3n2)s1 (stereo in doubt) [Example 40, (S)-(2-(1,1-difluoroethyl)thiazol-5-yl)(4-(quinolin-2-yl)-6,7-dihydro-1H-imidazo[4,5-c]pyridin-5(4H)-yl)methanone]
< 0.5 µM | O=C(CC1CC1)N1CCc2[nH]cnc2C1c1ccc2ccccc2n1 (stereo in doubt) [Example 41, (R)-2-cyclopropyl-1-(4-(quinolin-2-yl)-6,7-dihydro-1H-imidazo[4,5-c]pyridin-5(4H)-yl)ethanone]
1 to 5 µM | O=C(CC1CC1)N1CCc2[nH]cnc2C1c1ccc2ccccc2n1 (stereo in doubt) [Example 42, (S)-2-cyclopropyl-1-(4-(quinolin-2-yl)-6,7-dihydro-1H-imidazo[4,5-c]pyridin-5(4H)-yl)ethanone]
< 0.5 µM | O=C(c1oc(-c2ccccn2)nc1C1CC1)N1CCc2[nH]cnc2C1c1ccc2ccccc2n1 (stereo in doubt) [Example 43, (R)-(4-cyclopropyl-2-(pyridin-2-yl)oxazol-5-yl)(4-(quinolin-2-yl)-6,7-dihydro-1H-imidazo[4,5-c]pyridin-5(4H)-yl)methanone]
1 to 5 µM | O=C(c1oc(-c2ccccn2)nc1C1CC1)N1CCc2[nH]cnc2C1c1ccc2ccccc2n1 (stereo in doubt) [Example 44, (S)-(4-cyclopropyl-2-(pyridin-2-yl)oxazol-5-yl)(4-(quinolin-2-yl)-6,7-dihydro-1H-imidazo[4,5-c]pyridin-5(4H)-yl)methanone]
< 0.5 µM | O=C(c1nnc(-c2ccccn2)o1)N1CCc2[nH]cnc2C1c1ccc2ccccc2n1 (stereo in doubt) [Example 45, (R)-(5-(pyridin-2-yl)-1,3,4-oxadiazol-2-yl)(4-(quinolin-2-yl)-6,7-dihydro-1H-imidazo[4,5-c]pyridin-5(4H)-yl)methanone]
> 5 µM | O=C(c1nnc(-c2ccccn2)o1)N1CCc2[nH]cnc2C1c1ccc2ccccc2n1 (stereo in doubt) [Example 46, (S)-(5-(pyridin-2-yl)-1,3,4-oxadiazol-2-yl)(4-(quinolin-2-yl)-6,7-dihydro-1H-imidazo[4,5-c]pyridin-5(4H)-yl)methanone]
0.5 to 1 µM | Cn1cc(-c2nnc(C(=O)N3CCc4[nH]cnc4C3c3ccc4ccccc4n3)o2)cn1 (stereo in doubt) [Example 47, (R)-(5-(1-methyl-1H-pyrazol-4-yl)-1,3,4-oxadiazol-2-yl)(4-(quinolin-2-yl)-6,7-dihydro-1H-imidazo[4,5-c]pyridin-5(4H)-yl)methanone]
> 5 µM | Cn1cc(-c2nnc(C(=O)N3CCc4[nH]cnc4C3c3ccc4ccccc4n3)o2)cn1 (stereo in doubt) [Example 48, (S)-(5-(1-methyl-1H-pyrazol-4-yl)-1,3,4-oxadiazol-2-yl)(4-(quinolin-2-yl)-6,7-dihydro-1H-imidazo[4,5-c]pyridin-5(4H)-yl)methanone]
< 0.5 µM | O=C([C@H]1CC1(F)F)N1CCc2[nH]cnc2[C@@H]1c1ccc2ccccc2n1 (stereo in doubt) [Example 49, ((R)-2,2-difluorocyclopropyl)((R)-4-(quinolin-2-yl)-6,7-dihydro-1H-imidazo[4,5-c]pyridin-5(4H)-yl)methanone]
> 5 µM | O=C([C@@H]1CC1(F)F)N1CCc2[nH]cnc2C1c1ccc2ccccc2n1 (stereo in doubt) [Example 50, ((S)-2,2-difluorocyclopropyl)((S)-4-(quinolin-2-yl)-6,7-dihydro-1H-imidazo[4,5-c]pyridin-5(4H)-yl)methanone]
< 0.5 µM | O=C(c1ocnc1C(F)F)N1CCc2nc[nH]c2C1c1ccc2ccccc2n1 (stereo in doubt) [Example 51, (R)-(4-(difluoromethyl)oxazol-5-yl)(4-(quinolin-2-yl)-6,7-dihydro-3H-imidazo[4,5-c]pyridin-5(4H)-yl)methanone]
1 to 5 µM | O=C(c1ocnc1C(F)F)N1CCc2nc[nH]c2C1c1ccc2ccccc2n1 (stereo in doubt) [Example 52, (S)-(4-(difluoromethyl)oxazol-5-yl)(4-(quinolin-2-yl)-6,7-dihydro-3H-imidazo[4,5-c]pyridin-5(4H)-yl)methanone]
< 0.5 µM | O=C(CC1CC(F)C1)N1CCc2[nH]cnc2C1c1ccc2ccccc2n1 (stereo in doubt) [Example 53, (R)-2-(3-fluorocyclobutyl)-1-(4-(quinolin-2-yl)-6,7-dihydro-1H-imidazo[4,5-c]pyridin-5(4H)-yl)ethanone]
1 to 5 µM | O=C(CC1CC(F)C1)N1CCc2[nH]cnc2C1c1ccc2ccccc2n1 (stereo in doubt) [Example 54, (S)-2-(3-fluorocyclobutyl)-1-(4-(quinolin-2-yl)-6,7-dihydro-1H-imidazo[4,5-c]pyridin-5(4H)-yl)ethanone]
0.5 to 1 µM | O=C(N1CCc2[nH]cnc2C1c1ccc2ccccc2n1)C(F)(F)C1(O)CCC1 (stereo in doubt) [Example 55, (R)-2,2-difluoro-2-(1-hydroxycyclobutyl)-1-(4-(quinolin-2-yl)-6,7-dihydro-1H-imidazo[4,5-c]pyridin-5(4H)-yl)ethanone]
1 to 5 µM | O=C(N1CCc2[nH]cnc2C1c1ccc2ccccc2n1)C(F)(F)C1(O)CCC1 (stereo in doubt) [Example 56, (S)-2,2-difluoro-2-(1-hydroxycyclobutyl)-1-(4-(quinolin-2-yl)-6,7-dihydro-1H-imidazo[4,5-c]pyridin-5(4H)-yl)ethanone]
< 0.5 µM | N#Cc1ncoc1C(=O)N1CCc2[nH]cnc2C1c1ccc2ccccc2n1 (stereo in doubt) [Example 57, (R)-5-(4-(quinolin-2-yl)-4,5,6,7-tetrahydro-1H-imidazo[4,5-c]pyridine-5-carbonyl)oxazole-4-carbonitrile]
1 to 5 µM | N#Cc1ncoc1C(=O)N1CCc2[nH]cnc2C1c1ccc2ccccc2n1 (stereo in doubt) [Example 58, (S)-5-(4-(quinolin-2-yl)-4,5,6,7-tetrahydro-1H-imidazo[4,5-c]pyridine-5-carbonyl)oxazole-4-carbonitrile]
< 0.5 µM | O=C(CC1(O)CCC1)N1CCc2[nH]cnc2C1c1ccc2ccccc2n1 (stereo in doubt) [Example 59, (R)-2-(1-hydroxycyclobutyl)-1-(4-(quinolin-2-yl)-6,7-dihydro-1H-imidazo[4,5-c]pyridin-5(4H)-yl)ethanone]
1 to 5 µM | O=C(CC1(O)CCC1)N1CCc2[nH]cnc2C1c1ccc2ccccc2n1 (stereo in doubt) [Example 60, (S)-2-(1-hydroxycyclobutyl)-1-(4-(quinolin-2-yl)-6,7-dihydro-1H-imidazo[4,5-c]pyridin-5(4H)-yl)ethanone]
